Peptide text beside a SMILES is read from it.
Target: T1, human sweet taste receptor TAS1R2/TAS1R3 (Homo sapiens, UniProt Q7RTX0+Q8TE23)
T1 construct: expressed in transfected cells; host or cells: HEK293 Flp-In T-Rex cells; Gα15Gi3 and TAS1R2 constitutive, TAS1R3 tetracycline-inducible
T1 sequence (Q8TE23 20-839): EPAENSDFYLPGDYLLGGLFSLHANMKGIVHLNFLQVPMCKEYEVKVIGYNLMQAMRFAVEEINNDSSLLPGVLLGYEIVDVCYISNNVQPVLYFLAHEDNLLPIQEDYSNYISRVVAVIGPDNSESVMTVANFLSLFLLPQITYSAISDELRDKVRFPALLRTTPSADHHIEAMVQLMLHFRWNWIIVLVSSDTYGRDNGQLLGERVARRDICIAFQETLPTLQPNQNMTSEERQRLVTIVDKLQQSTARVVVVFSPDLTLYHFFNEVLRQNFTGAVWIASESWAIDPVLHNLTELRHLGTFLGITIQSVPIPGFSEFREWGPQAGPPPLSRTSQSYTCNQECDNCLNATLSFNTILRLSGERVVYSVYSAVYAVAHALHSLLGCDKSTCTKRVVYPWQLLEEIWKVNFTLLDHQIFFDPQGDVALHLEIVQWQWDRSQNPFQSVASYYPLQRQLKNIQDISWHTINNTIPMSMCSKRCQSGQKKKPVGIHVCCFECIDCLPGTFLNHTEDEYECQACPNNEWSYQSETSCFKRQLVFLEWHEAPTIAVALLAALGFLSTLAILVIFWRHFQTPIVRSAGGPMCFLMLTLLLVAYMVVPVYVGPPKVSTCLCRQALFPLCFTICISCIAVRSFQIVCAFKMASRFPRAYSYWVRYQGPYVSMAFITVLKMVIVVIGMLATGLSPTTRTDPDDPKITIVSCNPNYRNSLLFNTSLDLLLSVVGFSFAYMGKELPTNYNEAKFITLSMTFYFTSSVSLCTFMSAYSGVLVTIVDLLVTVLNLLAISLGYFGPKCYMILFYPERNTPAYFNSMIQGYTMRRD
T1 sequence (Q7RTX0 21-852): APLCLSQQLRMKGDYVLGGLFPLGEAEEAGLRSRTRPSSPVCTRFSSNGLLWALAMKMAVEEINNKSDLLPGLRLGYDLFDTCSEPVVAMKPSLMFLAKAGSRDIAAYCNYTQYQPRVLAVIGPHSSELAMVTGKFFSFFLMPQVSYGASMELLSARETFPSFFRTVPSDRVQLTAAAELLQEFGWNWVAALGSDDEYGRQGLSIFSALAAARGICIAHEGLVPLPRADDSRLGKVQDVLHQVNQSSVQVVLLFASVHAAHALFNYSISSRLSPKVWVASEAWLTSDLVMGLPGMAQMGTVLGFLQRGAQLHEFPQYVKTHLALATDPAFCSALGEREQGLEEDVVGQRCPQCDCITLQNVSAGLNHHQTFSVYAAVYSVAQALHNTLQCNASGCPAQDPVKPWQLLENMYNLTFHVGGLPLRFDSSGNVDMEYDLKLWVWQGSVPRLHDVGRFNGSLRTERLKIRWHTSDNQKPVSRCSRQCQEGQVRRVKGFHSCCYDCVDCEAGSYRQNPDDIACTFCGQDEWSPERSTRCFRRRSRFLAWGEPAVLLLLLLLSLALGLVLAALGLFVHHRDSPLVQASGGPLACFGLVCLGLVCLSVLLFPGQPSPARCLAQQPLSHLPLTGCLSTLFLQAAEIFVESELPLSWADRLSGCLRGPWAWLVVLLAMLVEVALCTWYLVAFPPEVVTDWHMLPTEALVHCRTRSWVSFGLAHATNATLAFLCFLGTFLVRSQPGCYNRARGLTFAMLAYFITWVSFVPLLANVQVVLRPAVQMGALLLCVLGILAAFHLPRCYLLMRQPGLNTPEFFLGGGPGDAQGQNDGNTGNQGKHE
Experiment: Calcium mobilization assay in HEK293 Flp-In T-Rex-Gα15Gi3-TAS1R2/TAS1R3 cells (FLIPR, Fluo-4)
Format: cell-based
Conditions: for mode of inhibition by lactisole (shift of dose-response curve), cell experiments: combination with 10, 30, 100 μM lactisole; for time until reaching peak activity after agonist application / time where signal decreased below 50 % of the maximum signal amplitude, after agonist application: counted from agonist application at 20 sec; for time until reaching peak activity after agonist application / time where signal decreased below 50 % of the maximum signal amplitude, after agonist application / time until reaching the peak amplitude / time where signal decreased below 50 % of the maximum signal amplitude / time of signal decay back to baseline / time signal stayed above initial baseline: 1 mM Ace K, 3 mM aspartame, 10 mM cyclamate, 0.3 mM NHDC; for time until reaching the peak amplitude: including 20 sec of baseline monitoring prior to agonist application; for time where signal decreased below 50 % of the maximum signal amplitude: including 20 sec of baseline monitoring; for time of signal decay back to baseline / time signal stayed above initial baseline: raw fluorescence traces; for EC50: w/o lactisole, agonist concentrations on x-axis in mM, 3 independent experiments in duplicates, read-out: EC50 of TAS1R2/TAS1R3 activation (ΔF/F)
Procedure: For the functional characterization of the human sweet taste receptor, we used HEK293 Flp-In T-Rex cells stably transfected with the G protein chimera Gα15Gi3, and the two subunits of the human sweet taste receptor, TAS1R2 and TAS1R3 ([Galindo-Cuspinera et al., 2006]). The G protein chimera and TAS1R2 subunit are constitutively expressed, whereas the expression of the TAS1R3 subunit is inducible through addition of 0.5 µg/mL tetracycline. The experiments were done exactly as before ([Behrens et al., 2017], [Ben Abu et al., 2021]). Briefly, cells were seeded into 96-well plates (black, flat clear bottom) treated with 10 µg/mL poly-D-lysine and grown in low-glucose DMEM supplemented with 10 % fetal bovine serum, 100 U Penicillin/mL, 0.1 mg/mL Streptomycin, 2 mM L-glutamine, at 37 °C, 5 % CO2, saturated air-humidity overnight. About 24 h before the experiment tetracycline was added to induce TAS1R3 expression. Next, cells were loaded for 1 h with Fluo-4 am in the presence of 2.5 mM probenecid and washed twice with C1-buffer (130 mM NaCl, 5 mM KCl, 10 mM HEPES, 1 mM sodium pyruvate, and 2 mM CaCl2, pH 7.4). Then, plates were placed in a fluorometric imaging plate reader (FLIPR^tetra, Molecular Devices, San Jose, CA, United States) for automated compound application and measurement of fluorescence changes. Fluorescence changes of control wells not induced with tetracycline were subtracted from the data. Next, measurements were corrected for background fluorescence. Dose-response relationships of three independent experiments each performed in duplicates were calculated with SigmaPlot 14.0 software using the function f(x) = min+(max − min)/(1+(x/EC50)^nH).
TI-ratings were recorded and analyzed using the software EyeQuestion® 4.11.74 (Logic8 BV, NL) online and MS Excel 16.0 (Microsoft Corporation, USA). The statistical analysis and graphical representation were performed with GraphPad Prism 9.0 for sensory results and with SigmaPlot 14.0 for cell experiments. To evaluate the sensory dose–response effects of ascending sweetener concentration w/o lactisole, an asymmetrical five-parameter curve (Richard́s five-parameter dose–response curve) was fitted. The data are presented as means ± SEM from at least 16 single evaluations. Statistical significance between the different test compounds and concentration-dependent effects was assessed by two-way ANOVAs with Tukey post hoc test using Graph Pad Prism. The normal distribution of the data sets was checked by evaluation of the kurtosis (between −7 to + 7) and the skewness (between −3 to + 3). Equal variance was tested using Levenés test. In case the assumptions of a normal distribution and equal variance were not met, the non-parametric ANOVA on ranks (Kruskal-Wallis Test) with Dunn's post-hoc test without the calculation of interaction was applied. A Pearson product moment correlation was conducted to investigate relationships between sensory results and cell responses of the tested sweeteners.

mode of inhibition by lactisole (shift of dose-response curve), cell experiments | time until reaching peak activity after agonist application [s] | time where signal decreased below 50 % of the maximum signal amplitude, after agonist application [s] | time until reaching the peak amplitude [s] | time where signal decreased below 50 % of the maximum signal amplitude [s] | time of signal decay back to baseline / time signal stayed above initial baseline | EC50 [mM] | SMILES
competitive inhibition | 27 | 87 | 47 | 107 | ≥ 6 min | 0.05 ± 0.01 | COc1ccc(CCC(=O)c2c(O)cc(O[C@@H]3O[C@H](CO)[C@@H](O)[C@H](O)[C@H]3O[C@@H]3O[C@@H](C)[C@H](O)[C@@H](O)[C@H]3O)cc2O)cc1O [NHDC, neohesperidin dihydrochalcone]
Allosteric inhibition | 27 | 65 | 47 | 85 | about 3 min | 0.36 ± 0.04 | CC1=CC(=O)NS(=O)(=O)O1 [acesulfame K]
Allosteric inhibition | 23 | 73 | 43 | 93 | ≥ 6 min | 0.33 ± 0.02 | COC(=O)[C@H](Cc1ccccc1)NC(=O)[C@@H](N)CC(=O)O [aspartame] (H-Asp-Phe-OMe)
competitive inhibition | 19 | 73 | 39 | 93 | ≥ 6 min | 1.51 ± 0.11 | O=S(=O)(O)NC1CCCCC1 [cyclamate]

Source: PMC9532755, “Impact of lactisole on the time-intensity profile of selected sweeteners in dependence of the binding site” (Food Chemistry: X, 2022)
